Format in all cases: cell-based
One assay concerns p15 protein. As to the kind of experiment: Evaluation of p15 induction activity (Western blotting). Conditions: test substance 0.1 μM, 24 hrs, ACHN cells or HT-29 cells, compared to DMSO, n=2. As to the method:
ACHN cells or HT-29 cells were cultured in a 6 well plate at 2.5×10^5 cells/1.8 mL/well for 24 hrs, then a test substance (0.1 μM) dissolved in DMSO was added. After 24 hrs, cells were detached using trypsin-EDTA (ethylene diamine tetraacetic acid) and solubilized with NuPAGE LDS sample buffer (Invitrogen). Using an RC DC protein assay kit (BIO-RAD), the protein concentration of the sample was quantitated, and a sample in an amount corresponding to 10 μg of BSA (bovine serum albumin) was analyzed by Western blotting using an anti-p15 antibody. The density of the band stained with the anti-p15 antibody was measured by a densitometer to quantify the amount of p15 protein. As a control, DMSO was used and the test was performed with n=2 and the average protein amount was determined.

The subject of assay [1] is Renal cancer cell line ACHN cell. As to the kind of experiment: Growth inhibitory effect against cancer cell lines (3H-thymidine uptake), ACHN. Particulars: Homo sapiens, ACHN. As to the method:
(§1) Renal cancer cell line ACHN cell or colorectal cancer cell line HT-29 cells were cultured in a 96 well plate at 1.0×10^4 cells/90 μL/well for 24 hrs, then a test substance dissolved in DMSO (dimethyl sulfoxide) was added. After 18 hrs, ^3H-thymidine (0.25 μCi/well) was added and the cells were cultured for 6 hrs. Using a cell harvester, the cells were recovered on a UniFilter-96 GF/B glass filter and the ^3H radioactivity uptaken by the cells was measured by TopCount (Packard). As a control, DMSO was used and the activity of the test substance was expressed in the concentration (IC50) necessary for inhibiting ^3H radioactivity uptaken by the cell to 50% of that of the control group. The measurements were made in triplicate.

Assay [2] relates to colorectal cancer cell line HT-29 cells. As to the kind of experiment: Growth inhibitory effect against cancer cell lines (3H-thymidine uptake), HT-29. Conditions: Homo sapiens, HT-29, inhibition of 3H-thymidine uptake; test substance 18 hrs, then 3H-thymidine 6 hrs; triplicate. As to the method:
as §1

By fold induction is commonly meant the ratio of treated to control signal. A lower fold induction goes with little rise in signal. The term IC50 denotes the concentration needed to halve the response being measured.

As for `Cc1ccccc1-n1c(=O)n(C2CC2)c(=O)c2c(Nc3ccc(N(C)C)cc3)cc(=O)n(C)c21` [Example 1-106], in the assay with p15 protein, the fold induction at 0.1 µM is at least 1.5. Moreover, the IC50 in assay [1] and in assay [2] was 100 to 1000 nM in each case.
Turning to `Cn1c(=O)cc(Nc2ccc(Br)cc2)c2c(=O)n(C3CC3)c(=O)n(-c3ccccc3F)c21` [Example 1-113], the fold induction at 0.1 µM in the assay on p15 protein was at least 1.5. Moreover, the IC50 in assay [1] and in assay [2] was 100 to 1000 nM in each case.
Take `Cn1c(=O)cc(Nc2ccc(Br)cc2Cl)c2c(=O)n(C3CC3)c(=O)n(-c3ccccc3)c21` [Example 1-176]: the fold induction at 0.1 µM with p15 protein was at least 1.5. Also, the IC50 in assay [1] is 100 to 1000 nM; in assay [2] it was 10 to 100 nM.
With `Cn1c(=O)cc(Nc2ccc(Br)cc2F)c2c(=O)n(C3CC3)c(=O)n(-c3ccc(O)cc3)c21` [Example 1-188], the fold induction at 0.1 µM in the assay on p15 protein is at least 1.5. Also, the IC50 in assay [1] lay in the range of 100 to 1000 nM; in assay [2], 10 to 100 nM.
On the same counts, the results for `COc1cccc(-n2c(=O)n(C3CC3)c(=O)c3c(Nc4ccc(Br)cc4F)cc(=O)n(C)c32)c1` [Example 1-191] are at least 1.5, 100 to 1000 nM and 10 to 100 nM.
On the same counts, the results for `CN(C)c1ccc(Nc2cc(=O)n(C)c3c2c(=O)n(C2CC2)c(=O)n3-c2ccccc2)c(F)c1` [Example 1-192] are at least 1.5, 100 to 1000 nM and 10 to 100 nM.
For `Cn1c(=O)cc(Nc2ccc(Br)cc2F)c2c(=O)n(C3CC3)c(=O)n(-c3cccc(N4CCOCC4)c3)c21` [Example 1-193], in the assay with p15 protein, the fold induction at 0.1 µM was at least 1.5. The IC50 in assay [1] is 100 to 1000 nM; in assay [2] it was under 10 nM.
In the assay with p15 protein, `CN(C)c1cccc(-n2c(=O)n(C3CC3)c(=O)c3c(Nc4ccc(Br)cc4F)cc(=O)n(C)c32)c1` [Example 1-199] came in with a fold induction at 0.1 µM of at least 1.5. Further, the IC50 in assay [1] is 100 to 1000 nM; in assay [2], 10 to 100 nM.
Taken in the same sequence, the figures for `Cn1c(=O)c2c(Nc3ccc(Br)cc3Cl)cc(=O)n(C)c2n(-c2ccccc2)c1=O` [Example 1-200] were at least 1.5, 100 to 1000 nM and 10 to 100 nM.
As to `CN(C)c1ccc(Nc2cc(=O)n(C)c3c2c(=O)n(C2CC2)c(=O)n3-c2cccc(N3CCOCC3)c2)c(F)c1` [Example 1-205], in the assay with p15 protein, the fold induction at 0.1 µM was at least 1.5. In addition, the IC50 in assay [1] was 100 to 1000 nM; in assay [2] it was under 10 nM.
On the same counts, the results for `Cn1c(=O)cc(Nc2ccc(I)cc2F)c2c(=O)n(C3CC3)c(=O)n(-c3ccccc3)c21` [Example 1-207] are at least 1.5, 10 to 100 nM and under 10 nM.
Taken in the same sequence, the figures for `C#Cc1ccc(Nc2cc(=O)n(C)c3c2c(=O)n(C2CC2)c(=O)n3-c2ccccc2)c(F)c1` [Example 1-208] were at least 1.5, 10 to 100 nM and under 10 nM.
In the assay with p15 protein, `Cn1c(=O)cc(Nc2ccc(Br)cc2F)c2c(=O)n(C3CC3)c(=O)n(-c3cccc(N4CCCC4=O)c3)c21` [Example 1-212] had a fold induction at 0.1 µM of at least 1.5. The IC50 in assay [1] is 100 to 1000 nM; in assay [2], under 10 nM.
Taken in the same sequence, the figures for `Cn1c(=O)cc(Nc2ccc(Br)cc2F)c2c(=O)n(C3CC3)c(=O)n(-c3cccc(O)c3)c21` [Example 1-213] were at least 1.5, 100 to 1000 nM and 10 to 100 nM.
Taken in the same sequence, the figures for `Cn1c(=O)cc(Nc2ccc(Br)cc2F)c2c(=O)n(C3CC3)c(=O)n(-c3cccc(S(C)(=O)=O)c3)c21` [Example 1-223] were at least 1.5, 100 to 1000 nM and 10 to 100 nM.
On to `CCCCC(=O)NCC(=O)Nc1cccc(-n2c(=O)n(C3CC3)c(=O)c3c(Nc4ccc(Br)cc4F)cc(=O)n(C)c32)c1` [Example 1-276], for which the IC50 in assay [1] is 100 to 1000 nM; in assay [2], 10 to 100 nM.
For `CCC(=O)Nc1cccc(-n2c(=O)n(C3CC3)c(=O)c3c(Nc4ccc(Br)cc4F)cc(=O)n(C)c32)c1` [Example 1-278], the IC50 in assay [1] was 100 to 1000 nM; in assay [2], 10 to 100 nM.
On to `Cn1c(=O)cc(Nc2ccc(Br)cc2)c2c(=O)n(C3CC3)c(=O)n(-c3cccc(NS(C)(=O)=O)c3)c21` [Example 1-304], for which the figures for the IC50 in assay [1] and in assay [2] were 100 to 1000 nM and 10 to 100 nM, respectively.
On to `CCOC(=O)Nc1cccc(-n2c(=O)n(C3CC3)c(=O)c3c(Nc4ccc(Br)cc4F)cc(=O)n(C)c32)c1` [Example 1-308], for which the IC50 fell in the range of 100 to 1000 nM in assay [1] and 10 to 100 nM in assay [2].
Take `Cn1c(=O)cc(Nc2ccc(Br)cc2F)c2c(=O)n(C3CC3)c(=O)n(-c3cccc(NS(=O)(=O)c4cccnc4)c3)c21` [Example 1-335]: the IC50 in assay [1] is 100 to 1000 nM; in assay [2], 10 to 100 nM.
Regarding `Cn1c(=O)cc(Nc2ccc3sccc3c2F)c2c(=O)n(C3CC3)c(=O)n(-c3ccccc3)c21` [Example 1-343], the IC50 in assay [1] fell in the range of 100 to 1000 nM; in assay [2], 10 to 100 nM.
Taken in the same sequence, the figures for `Cc1c(=O)n(C)c(Nc2ccc(Br)cc2)c2c(=O)n(C3CC3)c(=O)n(-c3ccccc3)c12` [Example 3-1] were 100 to 1000 nM and 100 to 1000 nM.
Taken in the same sequence, the figures for `Cc1c(=O)n(C)c(Nc2ccc(Br)cc2F)c2c(=O)n(C3CC3)c(=O)n(-c3ccc([N+](=O)[O-])cc3)c12` [Example 4-5] were 100 to 1000 nM and 10 to 100 nM.
As for `CCn1c(=O)c2c(Nc3ccc(I)cc3F)n(C)c(=O)c(C)c2n(-c2cccc(NS(=O)(=O)CC)c2)c1=O` [Example 4-19], the IC50 was 10 to 100 nM in assay [1] and under 10 nM in assay [2].
On the same counts, the results for `CCn1c(=O)c2c(Nc3ccc(I)cc3F)n(C)c(=O)c(C)c2n(-c2cccc(NS(C)(=O)=O)c2)c1=O` [Example 4-20] are 10 to 100 nM and under 10 nM.
Take `CCc1ccc(Nc2c3c(=O)n(C4CC4)c(=O)n(-c4cccc(NS(C)(=O)=O)c4)c3c(C)c(=O)n2C)c(F)c1` [Example 4-25]: the IC50 in assay [1] is 10 to 100 nM; in assay [2] it was under 10 nM.
For `CCc1ccc(Nc2c3c(=O)n(C4CC4)c(=O)n(-c4cccc(NS(=O)(=O)CC)c4)c3c(C)c(=O)n2C)c(F)c1` [Example 4-26], the IC50 in assay [1] was 10 to 100 nM; in assay [2], under 10 nM.
`Cc1c(=O)n(C)c(Nc2ccc(I)cc2F)c2c(=O)n(C3CC3)c(=O)n(-c3cccc(NS(=O)(=O)N(C)C)c3)c12` [Example 4-33]: the IC50 in assay [1] and in assay [2] was under 10 nM throughout.
Consider `Cc1c(=O)n(C)c(Nc2ccc(I)cc2F)c2c(=O)n(C3CC3)c(=O)n(-c3cccc(NS(=O)(=O)N4CCOCC4)c3)c12` [Example 4-34], for which the IC50 in assay [1] and in assay [2] was under 10 nM throughout.
In the case of `CC(=O)Nc1cc(Cl)cc(-n2c(=O)n(C3CC3)c(=O)c3c(Nc4ccc(I)cc4F)n(C)c(=O)c(C)c32)c1` [Example 4-37], the IC50 fell in the range of 100 to 1000 nM in assay [1] and 10 to 100 nM in assay [2].
On the same counts, the results for `C#Cc1ccc(Nc2c3c(=O)n(CC)c(=O)n(-c4cccc(NS(=O)(=O)CC)c4)c3c(C)c(=O)n2C)c(F)c1` [Example 4-40] are 10 to 100 nM and under 10 nM.
On the same counts, the results for `CCc1ccc(Nc2c3c(=O)n(CC)c(=O)n(-c4cccc(NS(=O)(=O)CC)c4)c3c(C)c(=O)n2C)c(F)c1` [Example 4-41] are 10 to 100 nM and 10 to 100 nM.
Taken in the same sequence, the figures for `C#Cc1ccc(Nc2c3c(=O)n(CC)c(=O)n(-c4cccc(NS(C)(=O)=O)c4)c3c(C)c(=O)n2C)c(F)c1` [Example 4-42] were 10 to 100 nM and under 10 nM.
Regarding `CCc1ccc(Nc2c3c(=O)n(CC)c(=O)n(-c4cccc(NS(C)(=O)=O)c4)c3c(C)c(=O)n2C)c(F)c1` [Example 4-44], the IC50 in assay [1] was in the range of 100 to 1000 nM; in assay [2], 10 to 100 nM.
`C#Cc1ccc(Nc2c3c(=O)n(C4CC4)c(=O)n(-c4cccc(NC(C)=O)c4)c3c(C)c(=O)n2CC)c(F)c1` [Example 4-46]: the IC50 in assay [1] was in the range of 100 to 1000 nM; in assay [2] it was 10 to 100 nM.
On the same counts, the results for `CC#Cc1ccc(Nc2c3c(=O)n(C4CC4)c(=O)n(-c4cccc(NC(C)=O)c4)c3c(C)c(=O)n2C)c(F)c1` [Example 4-52] are 100 to 1000 nM and 100 to 1000 nM.
Turning to `Cc1c(=O)n(C)c(Nc2ccc(I)cc2F)c2c(=O)n(C3CC3)c(=O)n(-c3cccc(NC(=O)c4cccn4C)c3)c12` [Example 4-87], the 50% inhibitory concentration (IC50) in assay [1] fell in the range of 100 to 1000 nM; in assay [2], 10 to 100 nM.
On the same counts, the results for `Cc1c(=O)n(C)c(Nc2ccc(I)cc2F)c2c(=O)n(C3CC3)c(=O)n(-c3ccc(CC(=O)O)cc3)c12` [Example 4-94] are 100 to 1000 nM and 10 to 100 nM.
For the compound `Cc1c(=O)n(C)c(Nc2ccc(I)cc2F)c2c(=O)n(C3CC3)c(=O)n(-c3cccc(NC(=O)NCCO)c3)c12` [Example 4-95], the IC50 was 100 to 1000 nM in assay [1] and 10 to 100 nM in assay [2].
Taken in the same sequence, the figures for `Cc1c(=O)n(C)c(Nc2ccc(I)cc2F)c2c(=O)n(C3CC3)c(=O)n(-c3cccc(NS(=O)(=O)N(CCO)C(=O)NCCO)c3)c12` [Example 4-96] were 100 to 1000 nM and 10 to 100 nM.
